ChEMBL document CHEMBL3132751, “Crafting precise multivalent architectures” (Medchemcomm, 2013)

Biological target: T1, CD209 antigen (Homo sapiens, UniProt Q9NNX6)
T1 sequence (Q9NNX6 whole entry): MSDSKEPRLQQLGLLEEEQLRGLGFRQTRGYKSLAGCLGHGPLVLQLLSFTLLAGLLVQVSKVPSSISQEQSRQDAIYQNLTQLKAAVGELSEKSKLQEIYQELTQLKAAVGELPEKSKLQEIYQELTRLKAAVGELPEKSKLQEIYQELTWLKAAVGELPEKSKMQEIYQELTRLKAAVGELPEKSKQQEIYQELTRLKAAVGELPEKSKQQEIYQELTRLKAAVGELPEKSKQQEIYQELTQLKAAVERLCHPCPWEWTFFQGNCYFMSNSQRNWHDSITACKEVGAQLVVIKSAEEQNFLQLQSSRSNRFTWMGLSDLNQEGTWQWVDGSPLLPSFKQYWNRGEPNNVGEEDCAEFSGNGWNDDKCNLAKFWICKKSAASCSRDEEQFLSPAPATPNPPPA
Test: Binding affinity to DC-SIGN (unknown origin)

Row | Kd [mM] | Structure (SMILES)
1 | 6.7 | C[C@H](O)[C@@H](O)[C@@H](O)[C@H](O)C=O [L-FUCOSE]
2 | 8.7 | CC(=O)N[C@H](C=O)[C@@H](O)[C@H](O)[C@H](O)CO
